Tests used:
ducksalad = assay: Test B flooded paddy test; type: in vivo, Heteranthera limosa; settings: 250 g ai/ha, Flood; scale of 0 to 100 where 0 is no effect and 100 is complete control
Summary of the method: (§1)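 Visual ratings from 0, meaning no effect, up to 100, meaning complete control, were made by comparison with untreated controls 13 to 15 days after treatment. Test compounds went straight into floodwater standing 3 cm over the soil of pots holding 2-leaf seedlings.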

morningglory = assay: Test C pre-/postemergence herbicide test; type: in vivo, Ipomoea coccinea
Summary of the method: (§2)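 Two application timings ran in parallel with identically formulated test chemicals (non-phytotoxic solvent, surfactant included): spray on seeded loam–sand soil, and spray on emerged plants 2 to 18 cm high. Evaluation at 13 to 15 days compared each species with controls, rated from 0 up to 100.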

oat, wild = assay: Test C pre-/postemergence herbicide test; type: in vivo, Avena fatua
Summary of the method: as §2

soybean = assay: Test C pre-/postemergence herbicide test; type: in vivo, Glycine max
Summary of the method: as §2

nutsedge, yellow = assay: Test C pre-/postemergence herbicide test; type: in vivo, Cyperus esculentus
Summary of the method: as §2

pigweed = assay: Test A pre-/postemergence herbicide test; type: in vivo, Amaranthus retroflexus; settings: for Pigweed plant response rating: Preemergence, visual rating on 0 to 100 scale (0 no effect, 100 complete control)
Summary of the method: (§3)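 Directed soil spray to seeded pots (preemergence) or spray onto one- to two-leaf seedlings 2–10 cm tall (postemergence); loam/sand substrate throughout. Evaluated visually after about 10 days against untreated plants, 0 = no effect, 100 = complete control.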

barnyardgrass [1] = assay: Test A pre-/postemergence herbicide test; type: in vivo, Echinochloa crus-galli; settings: for Barnyardgrass plant response rating: Preemergence, visual rating on 0 to 100 scale (0 no effect, 100 complete control)
Summary of the method: as §3

ryegrass, Italian = assay: Test C pre-/postemergence herbicide test; type: in vivo, Lolium multiflorum
Summary of the method: as §2

rice = assay: Test B flooded paddy test; type: in vivo, Oryza sativa; settings: 250 g ai/ha, Flood; scale of 0 to 100 where 0 is no effect and 100 is complete control
Summary of the method: as §1

barnyardgrass [2] = assay: Test B flooded paddy test; type: in vivo, Echinochloa crus-galli; settings: 250 g ai/ha, Flood; scale of 0 to 100 where 0 is no effect and 100 is complete control
Summary of the method: as §1

barnyardgrass [3] = assay: Test C pre-/postemergence herbicide test; type: in vivo, Echinochloa crus-galli
Summary of the method: as §2

waterhemp = assay: Test C pre-/postemergence herbicide test; type: in vivo, Amaranthus rudis
Summary of the method: as §2

[4] = Postemergence, 16 g ai/ha, scale 0 to 100 (0 no effect, 100 complete control)
[5] = Postemergence, 31 g ai/ha, scale 0 (no effect) to 100 (complete control)
[6] = Postemergence, 62 g ai/ha, scale 0 to 100 (0 no effect, 100 complete control)
[7] = Postemergence, 125 g ai/ha, scale 0 to 100 (0 no effect, 100 complete control)
[8] = Preemergence, 62 g ai/ha, scale 0 to 100
[9] = Preemergence, 125 g ai/ha, scale 0 to 100 (0 no effect, 100 complete control)
[10] = Preemergence, 16 g ai/ha, scale 0 to 100
[11] = Postemergence, 125 g ai/ha, 0 to 100 scale, 0 no effect, 100 complete control
[12] = Postemergence, 500 g ai/ha, 0 to 100 scale (0 no effect, 100 complete control)
[13] = preemergence, 500 g ai/ha, 0 to 100 scale
[14] = preemergence, 500 g ai/ha, 0 to 100 scale (0 no effect, 100 complete control)
[15] = Postemergence, 250 g ai/ha, scale 0 to 100 (0 no effect, 100 complete control)
[16] = Postemergence, 31 g ai/ha, scale 0 to 100 (0 no effect, 100 complete control)
[17] = Postemergence, 62 g ai/ha, scale 0 (no effect) to 100 (complete control)
[18] = Preemergence, 31 g ai/ha, scale 0 to 100, 0 is no effect and 100 is complete control
[19] = Preemergence, 62 g ai/ha, scale 0 to 100 (0 no effect, 100 complete control)
[20] = 125 g ai/ha, visual rating, 0 to 100 scale, 0 no effect, 100 complete control, approximately 10 days, preemergence
[21] = Postemergence, 125 g ai/ha, 0 to 100 scale, 0 is no effect, 100 is complete control
[22] = preemergence, 500 g ai/ha, 0 to 100 scale, 0 is no effect and 100 is complete control

O=C1NCC(c2cc(F)c(F)c(F)c2)C1C(=O)Nc1cccc(F)c1F (centres unmarked) [Compound 48]
40: Plant response rating, Barnyardgrass (barnyardgrass [2])
90: Plant response rating, Barnyardgrass (barnyardgrass [1]; [12]) | Plant response rating, Barnyardgrass (barnyardgrass [1]; [14])
10: Plant response rating, Morningglory (morningglory; [4]) | Plant response rating, Morningglory (morningglory; [5]) | Plant response rating, Morningglory (morningglory; [6]) | Plant response rating, Morningglory (morningglory; [7]) | Plant response rating, Oat, Wild (oat, wild; [9]) | Plant response rating, Soybean (soybean; [5]) | Plant response rating, Soybean (soybean; [6]) | Plant response rating, Soybean (soybean; [7]) | Plant response rating, Soybean (soybean; [8]) | Plant response rating, Soybean (soybean; [10])
15: Plant response rating, Morningglory (morningglory; [9]) | Plant response rating, Soybean (soybean; [9])
5: Plant response rating, Soybean (soybean; [4])
100: Plant response rating, Ducksalad (ducksalad)
0: Plant response rating, Morningglory (morningglory; [8]) | Plant response rating, Morningglory (morningglory; [10]) | Plant response rating, Oat, Wild (oat, wild; [4]) | Plant response rating, Oat, Wild (oat, wild; [5]) | Plant response rating, Oat, Wild (oat, wild; [6]) | Plant response rating, Oat, Wild (oat, wild; [7]) | Plant response rating, Oat, Wild (oat, wild; [8]) | Plant response rating, Oat, Wild (oat, wild; [10]) | Plant response rating, Nutsedge, Yellow (nutsedge, yellow; [4]) | Plant response rating, Nutsedge, Yellow (nutsedge, yellow; [5]) | Plant response rating, Nutsedge, Yellow (nutsedge, yellow; [6]) | Plant response rating, Nutsedge, Yellow (nutsedge, yellow; [7]) | Plant response rating, Nutsedge, Yellow (nutsedge, yellow; [8]) | Plant response rating, Nutsedge, Yellow (nutsedge, yellow; [10]) | Plant response rating, Pigweed (pigweed; [11]) | Plant response rating, Pigweed (pigweed; [12]) | Pigweed plant response rating (pigweed; 125 g ai/ha) | Plant response rating, Pigweed (pigweed; [13]) | Plant response rating, Ryegrass, Italian (ryegrass, Italian; [4]) | Plant response rating, Ryegrass, Italian (ryegrass, Italian; [5]) | Plant response rating, Ryegrass, Italian (ryegrass, Italian; [6]) | Plant response rating, Ryegrass, Italian (ryegrass, Italian; [7]) | Plant response rating, Ryegrass, Italian (ryegrass, Italian; [8]) | Plant response rating, Ryegrass, Italian (ryegrass, Italian; [9]) | Plant response rating, Ryegrass, Italian (ryegrass, Italian; [10])
20: Plant response rating, Nutsedge, Yellow (nutsedge, yellow; [9]) | Plant response rating, Rice (rice)
80: Plant response rating, Barnyardgrass (barnyardgrass [1]; [11]) | Barnyardgrass plant response rating (barnyardgrass [1]; 125 g ai/ha)

O=C1NCC(c2cc(F)c(F)cc2F)C1C(=O)Nc1cccc(F)c1F (centres unmarked) [Compound 50]
30: Barnyardgrass plant response rating (barnyardgrass [1]; 125 g ai/ha)
15: Plant response rating, Soybean (soybean; [6]) | Plant response rating, Soybean (soybean; [7])
20: Plant response rating, Soybean (soybean; [15])
5: Plant response rating, Nutsedge, Yellow (nutsedge, yellow; [15])
0: Plant response rating, Morningglory (morningglory; [5]) | Plant response rating, Morningglory (morningglory; [6]) | Plant response rating, Oat, Wild (oat, wild; [5]) | Plant response rating, Oat, Wild (oat, wild; [6]) | Plant response rating, Oat, Wild (oat, wild; [7]) | Plant response rating, Oat, Wild (oat, wild; [15]) | Plant response rating, Nutsedge, Yellow (nutsedge, yellow; [5]) | Plant response rating, Nutsedge, Yellow (nutsedge, yellow; [6]) | Plant response rating, Nutsedge, Yellow (nutsedge, yellow; [7]) | Plant response rating, Pigweed (pigweed; [11]) | Plant response rating, Pigweed (pigweed; [12]) | Pigweed plant response rating (pigweed; 125 g ai/ha) | Plant response rating, Pigweed (pigweed; [13]) | Plant response rating, Ryegrass, Italian (ryegrass, Italian; [5]) | Plant response rating, Ryegrass, Italian (ryegrass, Italian; [6]) | Plant response rating, Ryegrass, Italian (ryegrass, Italian; [7]) | Plant response rating, Ryegrass, Italian (ryegrass, Italian; [15]) | Plant response rating, Rice (rice) | Plant response rating, Barnyardgrass (barnyardgrass [2])
10: Plant response rating, Morningglory (morningglory; [7]) | Plant response rating, Morningglory (morningglory; [15]) | Plant response rating, Soybean (soybean; [5])
90: Plant response rating, Ducksalad (ducksalad) | Plant response rating, Barnyardgrass (barnyardgrass [1]; [14])
80: Plant response rating, Barnyardgrass (barnyardgrass [1]; [11]) | Plant response rating, Barnyardgrass (barnyardgrass [1]; [12])

O=C1NC[C@H](c2cccc(C(F)(F)F)c2)[C@H]1C(=O)Nc1cccc(F)c1F [Compound 206]
50: Plant response rating, Oat, Wild (oat, wild; [15]) | Plant response rating, Pigweed (pigweed; [21])
90: Plant response rating, Barnyardgrass (barnyardgrass [1]; [20]) | Plant response rating, Barnyardgrass (barnyardgrass [1]; [21]) | Barnyardgrass plant response rating (0 to 100 scale, 0 is no effect, 100 is complete control) (barnyardgrass [1]; Postemergence, 500 g ai/ha) | Plant response rating, Barnyardgrass (barnyardgrass [1]; [22]) | Barnyardgrass plant response rating (barnyardgrass [3]; [18]) | Plant response rating, Barnyardgrass (barnyardgrass [3]; [8])
95: Plant response rating, Barnyardgrass (barnyardgrass [3]; [9]) | Plant response rating (scale of 0 to 100; 0 is no effect, 100 is complete control), Barnyardgrass (barnyardgrass [3]; Preemergence, 250 g ai/ha)
5: Plant response rating, Oat, Wild (oat, wild; [17]) | Plant response rating, Soybean (soybean; [16]) | Plant response rating, Soybean (soybean; [17]) | Plant response rating, Soybean (soybean; [7]) | Plant response rating, Soybean (soybean; [15])
40: Ryegrass, Italian plant response rating (ryegrass, Italian; [19]) | Plant response rating, Barnyardgrass (barnyardgrass [3]; [17])
0: Morningglory plant response rating (morningglory; [18]) | Morningglory plant response rating (morningglory; [19]) | Plant response rating, Morningglory (morningglory; [9]) | Plant response rating, Oat, Wild (oat, wild; [16]) | Soybean plant response rating (soybean; [18]) | Soybean plant response rating (soybean; [19]) | Plant response rating, Soybean (soybean; [9]) | Plant response rating (scale of 0 to 100), Soybean (soybean; Preemergence, 250 g ai/ha) | Plant response rating, Nutsedge, Yellow (nutsedge, yellow; [16]) | Plant response rating, Nutsedge, Yellow (nutsedge, yellow; [7]) | Plant response rating, Nutsedge, Yellow (nutsedge, yellow; [15]) | Nutsedge, Yellow plant response rating (nutsedge, yellow; [18]) | Nutsedge, Yellow plant response rating (nutsedge, yellow; [19]) | Plant response rating, Nutsedge, Yellow (nutsedge, yellow; [9]) | Plant response rating (scale of 0 to 100), Nutsedge, Yellow (nutsedge, yellow; Preemergence, 250 g ai/ha) | Plant response rating, Ryegrass, Italian (ryegrass, Italian; [16]) | Plant response rating, Ryegrass, Italian (ryegrass, Italian; [17]) | Plant response rating, Waterhemp (waterhemp; [16]) | Plant response rating, Waterhemp (waterhemp; [17])
100: Waterhemp plant response rating (waterhemp; [19]) | Plant response rating, Waterhemp (waterhemp; [9]) | Plant response rating (scale of 0 to 100), Waterhemp (waterhemp; Preemergence, 250 g ai/ha)
35: Plant response rating, Morningglory (morningglory; [7]) | Plant response rating, Ryegrass, Italian (ryegrass, Italian; [15]) | Plant response rating, Waterhemp (waterhemp; [7])
80: Plant response rating, Pigweed (pigweed; [22]) | Plant response rating, Barnyardgrass (barnyardgrass [3]; [7]) | Plant response rating, Barnyardgrass (barnyardgrass [3]; [15])
45: Plant response rating, Morningglory (morningglory; [15]) | Plant response rating, Oat, Wild (oat, wild; [7]) | Plant response rating, Ryegrass, Italian (ryegrass, Italian; [9])
20: Plant response rating, Morningglory (morningglory; [16]) | Plant response rating, Morningglory (morningglory; [17]) | Plant response rating, Nutsedge, Yellow (nutsedge, yellow; [17]) | Plant response rating (scale of 0 to 100), Ryegrass, Italian (ryegrass, Italian; Preemergence, 250 g ai/ha)
10: Plant response rating (scale of 0 to 100), Morningglory (morningglory; Preemergence, 250 g ai/ha) | Plant response rating, Ryegrass, Italian (ryegrass, Italian; [7])
25: Plant response rating, Barnyardgrass (barnyardgrass [3]; [16])
30: Plant response rating, Pigweed (pigweed; [20]) | Ryegrass, Italian plant response rating (ryegrass, Italian; [18]) | Plant response rating, Waterhemp (waterhemp; [15])
70: Pigweed plant response rating (0 to 100 scale, 0 is no effect, 100 is complete control) (pigweed; Postemergence, 500 g ai/ha) | Waterhemp plant response rating (waterhemp; [18])
